Measured values reported in US20200017496A1 (priority 2017, published 2020).
Where two headings read alike, the source gives them in different places.

Assays:
Assay in all cases: MIC of compounds alone and combined with antibacterials, broth microdilution (CLSI)
Type in all cases: cell-based
[1] = tested on: Salmonella typhimurium (STY) isolates
Summary of the method: (§1)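 Inoculum 5·10^5 CFU/mL (final), log phase, ca-MHB; 16-20 h, 35° C, ambient air. MIC = lowest conc. with no visible growth; ATB MIC read at each compound level.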

[2] = tested on: Klebsiella oxytoca (KOX) isolates
Summary of the method: as §1

[3] = tested on: Providencia stuartii (PST) isolates
Summary of the method: as §1

[4] = tested on: Klebsiella pneumoniae (KPN) isolates; details: for MIC: Klebsiella pneumoniae
Summary of the method: as §1

[5] = tested on: Citrobacter koseri (CKR) isolates; details: for MIC: Citrobacter koseri, ATB alone, read-out: MIC
Summary of the method: as §1

CC(C)(O/N=C(\C(=O)N[C@@H]1C(=O)N2C(C(=O)[O-])=C(C[n+]3ccccc3)CS[C@H]12)c1csc(N)n1)C(=O)O [CAZ, Ceftazidime]
0.25 µg/mL: MIC ([4]; strain KPN LIB (SHV-11, OXA-48), ATB alone, read-out: MIC)
8 µg/mL: MIC ([2]; Klebsiella oxytoca, strain KOX UFR173 (OXY2-2), ATB alone, read-out: MIC) | MIC ATB in combination ([4]; KPN 260252, AF1 @ 8 μg/mL) | MIC ATB in combination ([4]; KPN UFR66, AF1 @ 4 μg/mL) | MIC ATB in combination ([4]; KPN UFR222, AF1 @ 4 μg/mL)
32 µg/mL: MIC ATB in combination ([4]; KPN 260252, AF1 @ 4 μg/mL) | MIC ATB in combination ([4]; KPN UFR78, AF1 @ 8 μg/mL) | MIC ([4]; strain KPN 200327 (TEM-1, SHV-1, CTX-M-15, OXA-1), ATB alone, read-out: MIC) | MIC ([4]; strain KPN UFR77 (CMY-2), ATB alone, read-out: MIC)
<=0.25 μg/mL: MIC ATB in combination [1] | MIC ATB in combination ([2]; KOX UFR21, AF1 @ 8 μg/mL) | MIC ATB in combination ([2]; KOX UFR173, AF1 @ 8 μg/mL) | MIC ATB in combination ([2]; KOX UFR223, AF1 @ 4 μg/mL) | MIC ATB in combination ([2]; KOX UFR223, AF1 @ 8 μg/mL) | MIC ATB in combination ([2]; KOX UFR224, AF1 @ 4 μg/mL) | MIC ATB in combination ([2]; KOX UFR224, AF1 @ 8 μg/mL) | MIC ATB in combination ([3]; PST UFR94, AF1 @ 8 μg/mL) | MIC ATB in combination ([3]; PST UFR235, AF1 @ 8 μg/mL) | MIC ATB in combination ([4]; KPN 6299, AF1 @ 8 μg/mL) | MIC ATB in combination ([4]; KPN 110376, AF1 @ 4 μg/mL) | MIC ATB in combination ([4]; KPN 110376, AF1 @ 8 μg/mL) | MIC ATB in combination ([4]; KPN 131119, AF1 @ 8 μg/mL) | MIC ATB in combination ([4]; KPN 160143, AF1 @ 8 μg/mL) | MIC ATB in combination ([4]; KPN 190128, AF1 @ 8 μg/mL) | MIC ATB in combination ([4]; KPN 190270, AF1 @ 8 μg/mL) | MIC ATB in combination ([4]; KPN 190425, AF1 @ 4 μg/mL) | MIC ATB in combination ([4]; KPN 190425, AF1 @ 8 μg/mL) | MIC ATB in combination ([4]; KPN 190551, AF1 @ 4 μg/mL) | MIC ATB in combination ([4]; KPN 190551, AF1 @ 8 μg/mL) | MIC ATB in combination ([4]; KPN 200047, AF1 @ 4 μg/mL) | MIC ATB in combination ([4]; KPN 200047, AF1 @ 8 μg/mL) | MIC ATB in combination ([4]; KPN 200327, AF1 @ 4 μg/mL) | MIC ATB in combination ([4]; KPN 200327, AF1 @ 8 μg/mL) | MIC ATB in combination ([4]; KPN 260251, AF1 @ 8 μg/mL) | MIC ATB in combination ([4]; KPN 260376, AF1 @ 4 μg/mL) | MIC ATB in combination ([4]; KPN 260376, AF1 @ 8 μg/mL) | MIC ATB in combination ([4]; KPN 270077, AF1 @ 4 μg/mL) | MIC ATB in combination ([4]; KPN 270077, AF1 @ 8 μg/mL) | MIC ATB in combination ([4]; KPN 700603, AF1 @ 8 μg/mL) | MIC ATB in combination ([4]; KPN ARA, AF1 @ 4 μg/mL) | MIC ATB in combination ([4]; KPN ARA, AF1 @ 8 μg/mL) | MIC ATB in combination ([4]; KPN BAA-1898, AF1 @ 8 μg/mL) | MIC ATB in combination ([4]; KPN LIB, AF1 @ 4 μg/mL) | MIC ATB in combination ([4]; KPN LIB, AF1 @ 8 μg/mL) | MIC ATB in combination ([4]; KPN UFR22_O, AF1 @ 4 μg/mL) | MIC ATB in combination ([4]; KPN UFR22_O, AF1 @ 8 μg/mL) | MIC ATB in combination ([4]; KPN UFR23, AF1 @ 4 μg/mL) | MIC ATB in combination ([4]; KPN UFR23, AF1 @ 8 μg/mL) | MIC ATB in combination ([4]; KPN UFR25, AF1 @ 8 μg/mL) | MIC ATB in combination ([4]; KPN UFR28, AF1 @ 4 μg/mL) | MIC ATB in combination ([4]; KPN UFR28, AF1 @ 8 μg/mL) | MIC ATB in combination ([4]; KPN UFR65, AF1 @ 8 μg/mL) | MIC ATB in combination ([4]; KPN UFR66, AF1 @ 8 μg/mL) | MIC ATB in combination ([4]; KPN UFR80, AF1 @ 4 μg/mL) | MIC ATB in combination ([4]; KPN UFR80, AF1 @ 8 μg/mL) | MIC ATB in combination ([4]; KPN UFR215, AF1 @ 4 μg/mL) | MIC ATB in combination ([4]; KPN UFR215, AF1 @ 8 μg/mL) | MIC ATB in combination ([4]; KPN UFR216, AF1 @ 4 μg/mL) | MIC ATB in combination ([4]; KPN UFR216, AF1 @ 8 μg/mL) | MIC ATB in combination ([4]; KPN UFR217, AF1 @ 4 μg/mL) | MIC ATB in combination ([4]; KPN UFR217, AF1 @ 8 μg/mL) | MIC ATB in combination ([4]; KPN UFR219, AF1 @ 8 μg/mL) | MIC ATB in combination ([4]; KPN UFR221, AF1 @ 8 μg/mL) | MIC ATB in combination ([5]; CKO ROU, AF1 @ 4 μg/mL) | MIC ATB in combination ([5]; CKO ROU, AF1 @ 8 μg/mL) | MIC ATB in combination ([5]; CKO UFR149, AF1 @ 8 μg/mL)
4 µg/mL: MIC ATB in combination ([4]; KPN UFR27, AF1 @ 4 μg/mL) | MIC ATB in combination ([4]; KPN UFR67, AF1 @ 8 μg/mL) | MIC ATB in combination ([4]; KPN UFR68, AF1 @ 4 μg/mL) | MIC ATB in combination ([4]; KPN UFR77, AF1 @ 4 μg/mL) | MIC ATB in combination ([4]; KPN UFR222, AF1 @ 8 μg/mL) | MIC ATB in combination ([5]; CKO UFR150, AF1 @ 4 μg/mL) | MIC ATB in combination ([5]; CKO UFR150, AF1 @ 8 μg/mL) | MIC ([5]; strain CKO UFR150 (TEM-1, OXA-48))
0.5 µg/mL: MIC ATB in combination ([3]; PST UFR94, AF1 @ 4 μg/mL) | MIC ATB in combination ([3]; PST UFR95, AF1 @ 8 μg/mL) | MIC ATB in combination ([4]; KPN 6299, AF1 @ 4 μg/mL) | MIC ATB in combination ([4]; KPN 131119, AF1 @ 4 μg/mL) | MIC ATB in combination ([4]; KPN 190128, AF1 @ 4 μg/mL) | MIC ATB in combination ([4]; KPN 190270, AF1 @ 4 μg/mL) | MIC ATB in combination ([4]; KPN UFR24, AF1 @ 8 μg/mL) | MIC ATB in combination ([4]; KPN UFR25, AF1 @ 4 μg/mL) | MIC ATB in combination ([4]; KPN UFR27, AF1 @ 8 μg/mL) | MIC ATB in combination ([4]; KPN UFR81, AF1 @ 8 μg/mL) | MIC ATB in combination ([4]; KPN UFR219, AF1 @ 4 μg/mL) | MIC ATB in combination ([4]; KPN UFR221, AF1 @ 4 μg/mL) | MIC ([4]; strain KPN UFR23 (TEM-1, SHV-1, OXA-48), ATB alone, read-out: MIC) | MIC ([4]; strain KPN UFR80 (SHV-11, DHA-1, OXA-1), ATB alone, read-out: MIC) | MIC ATB in combination ([5]; CKO UFR149, AF1 @ 4 μg/mL)
16 µg/mL: MIC ATB in combination ([4]; KPN 140513, AF1 @ 4 μg/mL) | MIC ATB in combination ([4]; KPN UFR67, AF1 @ 4 μg/mL) | MIC ATB in combination ([4]; KPN UFR76, AF1 @ 4 μg/mL) | MIC ATB in combination ([4]; KPN UFR76, AF1 @ 8 μg/mL) | MIC ([4]; strain KPN UFR79 (DHA-1, OXA-1), ATB alone, read-out: MIC) | MIC ([4]; strain KPN UFR221 (TEM-1, SHV-11, CTX-M-14, DHA-1), ATB alone, read-out: MIC)
256 µg/mL: MIC ([4]; BAA1898)
1 µg/mL: MIC ATB in combination ([3]; PST UFR95, AF1 @ 4 μg/mL) | MIC ATB in combination ([3]; PST UFR235, AF1 @ 4 μg/mL) | MIC ([3]; Providencia stuartii, strain PST UFR94 (CTX-M-14), ATB alone, read-out: MIC) | MIC ATB in combination ([4]; KPN 160143, AF1 @ 4 μg/mL) | MIC ATB in combination ([4]; KPN 260251, AF1 @ 4 μg/mL) | MIC ATB in combination ([4]; KPN 700603, AF1 @ 4 μg/mL) | MIC ATB in combination ([4]; KPN BAA-1898, AF1 @ 4 μg/mL) | MIC ATB in combination ([4]; KPN UFR24, AF1 @ 4 μg/mL) | MIC ATB in combination ([4]; KPN UFR68, AF1 @ 8 μg/mL) | MIC ATB in combination ([4]; KPN UFR79, AF1 @ 8 μg/mL) | MIC ATB in combination ([4]; KPN UFR220, AF1 @ 8 μg/mL) | MIC ATB in combination ([4]; KPN UFR227O, AF1 @ 8 μg/mL) | MIC ([5]; strain CKO ROU (TEM-1, SHV-12, CTX-M-15, OXA-1, OXA-48))
2 µg/mL: MIC ATB in combination ([2]; KOX UFR21, AF1 @ 4 μg/mL) | MIC ATB in combination ([4]; KPN 140513, AF1 @ 8 μg/mL) | MIC ATB in combination ([4]; KPN UFR65, AF1 @ 4 μg/mL) | MIC ATB in combination ([4]; KPN UFR77, AF1 @ 8 μg/mL) | MIC ATB in combination ([4]; KPN UFR79, AF1 @ 4 μg/mL) | MIC ATB in combination ([4]; KPN UFR81, AF1 @ 4 μg/mL) | MIC ATB in combination ([4]; KPN UFR220, AF1 @ 4 μg/mL) | MIC ATB in combination ([4]; KPN UFR227O, AF1 @ 4 μg/mL) | MIC ([4]; strain KPN UFR22_O (TEM-1, SHV-1, OXA-48), ATB alone, read-out: MIC)
